Values quoted from earlier work, collected in patent US4177261A, “Pharmaceutical composition and method of stimulating blood circulation and wound healing” (Thera Gesellschaft fur Patentverwertung mbH, priority 1977, dated 1979).
No end group written: not given here.

Conditions: intra-cuticular injection

Substance	Quantity causing vehement pain reactions
RPPGFSPFR [Brady kinin, (NH2) arginine-proline-proline-glycine-phenylalanine-serine-proline-phenylalanine-arginine (COOH)]	about 0.1 micrograms per 1 milliliter of solution
kallidin: decapeptide; Bradykinin extended at the amino end by an additional lysine radical	about 0.1 micrograms per 1 milliliter of solution
